How the values were obtained:
MDA-MB-231 [1] = assay: Synergistic antiproliferative activity against human MDA-MB-231 cells assessed as combination index at 0.1 uM in presence of 0.1 uM doxorubicin by MTT assay; format: functional
[2] = AUC (0 to infinity) in Sprague-Dawley rat at 5 mg/kg, po; format: ADME, organism-based; parameters: time infinity, dose 5 mg/kg, route po; conditions: in vivo
[3] = Toxicity in BALB/c nude mouse xenografted with human HL-60 cells assessed as serum monocytes content at 100 mg/kg, po qd for 16 days (reference value: 0.5X10^9/L); format: organism-based; conditions: in vivo, 384 h, time 16 day
HL-60 [4] = assay: Synergistic antiproliferative activity against human HL-60 cells assessed as combination index at 6.25 uM in presence of 0.1 uM doxorubicin by MTT assay; format: functional
[5] = Toxicity in BALB/c nude mouse xenografted with human HL-60 cells assessed as MCHC level at 100 mg/kg, po qd for 16 days (reference value: 246 g/L); format: organism-based; conditions: in vivo, 384 h, time 16 day
HL-60 [6] = assay: Synergistic antiproliferative activity against human HL-60 cells assessed as combination index at 25 uM in presence of 0.1 uM doxorubicin by MTT assay; format: functional
[7] = Toxicity in BALB/c nude mouse xenografted with human HL-60 cells assessed as serum monocytes content at 100 mg/kg, po qd for 16 days (reference value: 12.2%); format: organism-based; conditions: in vivo, 384 h, time 16 day
HL-60 [8] = assay: Synergistic antitumor activity against human HL-60 cells xenografted in BALB/c nude mouse assessed as tumor weight at 100 mg/kg, po qd for 16 days co-administered with doxorubicin (reference value: 27.9%); format: functional; conditions: HL-60, 384 h, time 16 day
MCF7 = assay: Synergistic antiproliferative activity against human MCF7 cells assessed as combination index at 50 uM in presence of 0.1 uM doxorubicin by MTT assay; format: functional
MDA-MB-231 [9] = assay: Synergistic antiproliferative activity against human MDA-MB-231 cells assessed as combination index at 3.1 uM in presence of 0.1 uM doxorubicin by MTT assay; format: functional
HL-60 [10] = assay: Synergistic antiproliferative activity against human HL-60 cells assessed as combination index at 200 uM in presence of 0.1 uM doxorubicin by MTT assay; format: functional
HCT-116 [11] = assay: Induction of apoptosis in human HCT-116 cells assessed as early apoptotic cells at 1 uM incubated for 24 hrs in presence of 100 nM doxorubicin by AnnexinV-FITC/PI staining based flow cytometry (reference value: 3.04%); format: functional
MDA-MB-231 [12] = assay: Additive antiproliferative activity against human MDA-MB-231 cells assessed as combination index at 200 uM in presence of 0.1 uM doxorubicin by MTT assay; format: functional
[13] = Toxicity in BALB/c nude mouse xenografted with human HL-60 cells assessed as MCV level at 100 mg/kg, po qd for 16 days (reference value: 57.2 fL); format: organism-based; conditions: in vivo, 384 h, time 16 day
[14] = MRT (0 to infinity) in Sprague-Dawley rat at 5 mg/kg, po; format: ADME, organism-based; conditions: in vivo
in vitro = conditions: human, Caco-2
Description: Efflux ratio of apparent permeability across basolateral to apical side over apical to basolateral side in human Caco-2 cells

[15] = Toxicity in BALB/c nude mouse xenografted with human HL-60 cells assessed as serum WBC content at 100 mg/kg, po qd for 16 days (reference value: 3.8X10^9/L); format: organism-based; conditions: in vivo, 384 h, time 16 day
HCT-116 [16] = assay: Induction of apoptosis in human HCT-116 cells assessed as viable cells at 1 uM incubated for 24 hrs in presence of 100 nM doxorubicin by AnnexinV-FITC/PI staining based flow cytometry (reference value: 93.9%); format: functional; conditions: read-out: Activity
HL-60 [17] = assay: Synergistic antiproliferative activity against human HL-60 cells assessed as combination index at 12.5 uM in presence of 0.1 uM doxorubicin by MTT assay; format: functional
HL-60 [18] = assay: Synergistic antiproliferative activity against human HL-60 cells assessed as combination index at 100 uM in presence of 0.1 uM doxorubicin by MTT assay; format: functional
[19] = Toxicity in BALB/c nude mouse xenografted with human HL-60 cells assessed as MPV level at 100 mg/kg, po qd for 16 days (reference value: 7.55 fL); format: organism-based; conditions: in vivo, 384 h, time 16 day
HepG2 [20] = assay: Synergistic antiproliferative activity against Doxorubicin-resistant human HepG2 cells assessed as combination index at 25 uM in presence of 0.1 uM doxorubicin by MTT assay; format: functional
[21] = target: Phosphatidylinositol 4,5-bisphosphate 3-kinase catalytic subunit beta isoform (Homo sapiens, UniProt P42338); assay: Inhibition of human PI3Kbeta by ADP-Glo assay; format: toxicity
Chain of Phosphatidylinositol 4,5-bisphosphate 3-kinase catalytic subunit beta isoform (P42338 whole entry, canonical isoform): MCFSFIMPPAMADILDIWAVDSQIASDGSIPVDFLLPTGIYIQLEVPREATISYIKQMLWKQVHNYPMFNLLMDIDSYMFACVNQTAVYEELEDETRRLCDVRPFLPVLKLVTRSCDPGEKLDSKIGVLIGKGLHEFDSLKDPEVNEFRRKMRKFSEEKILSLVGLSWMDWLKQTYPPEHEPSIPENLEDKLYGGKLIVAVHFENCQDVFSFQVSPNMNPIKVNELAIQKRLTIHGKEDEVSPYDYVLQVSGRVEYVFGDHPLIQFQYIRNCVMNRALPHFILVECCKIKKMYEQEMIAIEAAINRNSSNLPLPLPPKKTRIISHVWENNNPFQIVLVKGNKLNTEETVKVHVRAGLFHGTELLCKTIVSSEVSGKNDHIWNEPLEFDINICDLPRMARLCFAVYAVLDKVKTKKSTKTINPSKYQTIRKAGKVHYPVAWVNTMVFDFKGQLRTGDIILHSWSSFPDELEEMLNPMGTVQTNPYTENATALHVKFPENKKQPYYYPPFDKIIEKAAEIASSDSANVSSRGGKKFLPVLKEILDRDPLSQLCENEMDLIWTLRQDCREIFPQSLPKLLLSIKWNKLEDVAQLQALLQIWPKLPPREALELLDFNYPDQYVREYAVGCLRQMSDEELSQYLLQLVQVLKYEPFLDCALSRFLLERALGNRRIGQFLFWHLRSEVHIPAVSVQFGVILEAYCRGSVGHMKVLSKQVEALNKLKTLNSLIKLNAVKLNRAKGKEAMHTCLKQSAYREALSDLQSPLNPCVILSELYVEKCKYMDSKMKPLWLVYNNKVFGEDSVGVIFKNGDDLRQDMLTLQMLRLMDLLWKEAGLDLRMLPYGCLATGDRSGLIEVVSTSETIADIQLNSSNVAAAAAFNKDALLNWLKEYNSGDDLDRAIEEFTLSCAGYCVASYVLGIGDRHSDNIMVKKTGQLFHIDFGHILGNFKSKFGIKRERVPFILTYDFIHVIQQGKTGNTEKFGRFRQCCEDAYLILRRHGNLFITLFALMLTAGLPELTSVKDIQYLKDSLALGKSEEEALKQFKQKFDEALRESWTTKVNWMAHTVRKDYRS

MDA-MB-231 [22] = assay: Synergistic antiproliferative activity against human MDA-MB-231 cells assessed as combination index at 25 uM in presence of 0.1 uM doxorubicin by MTT assay; format: functional
[23] = Toxicity in BALB/c nude mouse xenografted with human HL-60 cells assessed as RDW-CV level at 100 mg/kg, po qd for 16 days (reference value: 14.25%); format: organism-based; conditions: in vivo, 384 h, time 16 day
[24] = Toxicity in BALB/c nude mouse xenografted with human HL-60 cells assessed as serum granulocytes content at 100 mg/kg, po qd for 16 days (reference value: 0.51X10^9/L); format: organism-based; conditions: in vivo, 384 h, time 16 day
HepG2 [25] = assay: Synergistic antiproliferative activity against Doxorubicin-resistant human HepG2 cells assessed as combination index at 12.5 uM in presence of 0.1 uM doxorubicin by MTT assay; format: functional
MDA-MB-231 [26] = assay: Synergistic antiproliferative activity against human MDA-MB-231 cells assessed as combination index at 1 uM in presence of 0.1 uM doxorubicin by MTT assay; format: functional

Cc1cc2ncnn2cc1Nc1ncc2c(n1)N(C1CCOCC1)CC(=O)N2C
CI (MDA-MB-231 [1]): 0.4431
AUC(0-inf) [2]: 3600 ng·h/mL
Activity [3]: 0.51 10^9/L
CI (HL-60 [4]): 0.03585
Activity [5]: 249 g/L
CI (HL-60 [6]): 0.1382
Activity [7]: 12.15%
inhibition in vivo at 100 mg/kg (HL-60 [8]): 52.4%
CI (MCF7): 0.1215
CI (MDA-MB-231 [9]): 0.3259
CI (HL-60 [10]): 0.9812
Activity (HCT-116 [11]): 13.3%
CI (MDA-MB-231 [12]): 1.006
Activity [13]: 56.1 fL
MRT inf [14]: 2.29 h
efflux ratio (in vitro): 4.84
Activity [15]: 4.35 10^9/L
viability at 1 µM (HCT-116 [16]): 79.1%
CI (HL-60 [17]): 0.06945
CI (HL-60 [18]): 0.551
Activity [19]: 6.85 fL
CI (HepG2 [20]): 0.07268
IC50 [21]: 830 nM
CI (MDA-MB-231 [22]): 0.5933
Activity [23]: 15%
Activity [24]: 0.49 10^9/L
CI (HepG2 [25]): 0.04474
CI (MDA-MB-231 [26]): 0.2676

From ChEMBL document CHEMBL5120836, “Discovery of novel 7,8-dihydropteridine-6(5H)-one-based DNA-PK inhibitors as potential anticancer agents via scaffold hopping strategy” (Eur J Med Chem, 2022)
